# Experimental data reported in patent US20110003772A1, “USE OF SPHINGOLIPIDS IN THE TREATMENT OF TYPE 2 DIABETES MELLITUS, INSULIN RESISTANCE AND METABOLIC SYNDROME” (priority 2004, published 2011).
# Experiments:
# 3T3-L1 adipocytes = conditions: literature, Mei et al., 2002; cited from earlier work
# PPAR-α = molecular target: T1, PPAR-α (Homo sapiens, UniProt Q07869); conditions: literature, Van Veldhoven et al., 2000; cited from earlier work
# T1 sequence (Q07869 1-468): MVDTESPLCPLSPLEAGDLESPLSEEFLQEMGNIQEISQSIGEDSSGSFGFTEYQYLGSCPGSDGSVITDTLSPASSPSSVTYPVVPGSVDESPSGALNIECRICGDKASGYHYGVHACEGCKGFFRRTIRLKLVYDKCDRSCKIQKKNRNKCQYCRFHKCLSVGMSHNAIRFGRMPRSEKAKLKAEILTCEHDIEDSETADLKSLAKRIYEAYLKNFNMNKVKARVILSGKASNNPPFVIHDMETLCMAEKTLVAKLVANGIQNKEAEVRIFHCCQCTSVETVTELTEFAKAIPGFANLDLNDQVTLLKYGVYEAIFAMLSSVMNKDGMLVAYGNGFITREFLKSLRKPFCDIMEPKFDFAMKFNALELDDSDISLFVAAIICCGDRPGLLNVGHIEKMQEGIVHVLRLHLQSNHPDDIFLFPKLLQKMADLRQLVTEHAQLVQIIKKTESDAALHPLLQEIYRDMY
# female ob/ob mice [1] = assay: Hyperinsulinemic euglycemic clamp analysis in overnight fasted ob/ob mice; format: in vivo; conditions: 1% PS diet; for Glucose (plasma) during clamp: overnight fasted
# Experimental: (§1) The “gold standard” for insulin resistance is a test called the hyperinsulinemic euglycemic clamp study. It is a complicated and expensive study in which insulin and glucose is infused intravenously at several different doses to see what levels of insulin control different levels of glucose. Essentially, the method of Koopmans et al., 2001 and Voshol et al., 2001.
# (§2) All mice were fasted overnight and anaesthetised by intraperitoneal injection of Hypnorm® (fentanyl-fluanisone) (0.5 ml/kg body weight) and midazolam (12.5 mg/kg body weight). Mice were kept anaesthetised by administering 50 μl of Hypnorm®/midazolam subcutaneous every 45 minutes.
# (§3) A needle filled with PBS was inserted into the tail vein and was connected to two pumps (Model 100 series, KdScienticic, PA, USA): one with an insulin solution consisting of 3057 μl PBS, 400 μl citrate (30 μg/μl) and 543 μl insulin (1 U/ml), and one pump with a solution of 6.25 g D-glucose in 50 ml PBS. Before the infusion with the two solutions was started, a capillary of blood was drawn from the tail tip. Subsequently a bolus of 30 μl of insulin was given and the pumps were started (50 μl/h). The mice were given rest for 30 minutes. Then every 10 minutes the glucose level was measured with a glucose handmeter (Freestyle, Disetronic Medical Systems AG, Burgdorf, Germany) and the glucose infusion rate was adjusted until the glucose concentration in the blood was constant for at least 20 minutes and a capillary of blood was drawn.
# (§4) The insulin and glucose levels in the capillaries were measured using a standard commercial kit, according to the manufacturer's instructions (Hexokinase method, Instruchemie); and insulin levels were measured by Ultrasensitive mouse insulin ELISA, enzyme immunoassay according to the manufacturer's instructions (Mercodia, Sweden)
# 1.5 weeks after the last blood sample (necessary for full recovery of the mice) the ob/ob mice were fasted overnight and subjected to a hyperinsulinemic euglycemic clamp analysis. […]
# [2] = tested on: insulin resistant mice (male ApoE3*Leiden mice); assay: Hyperinsulinemic euglycemic clamp in insulin resistant mice on high fat, high fructose diet; format: in vivo; conditions: 0.3% (w/w) in high fat, compared to control group
# Source text: as §1
# Male ApoE3*Leiden mice were fed with a high fat, high fructose diet (24% casein, 17% corn starch, 14% cellulose, 1% cholesterol, 24% bovine lard, 20% fructose; all w/w). After 8 weeks all mice in this group were moderately insulin resistant and were strongly insulin resistant after 18 weeks. Two parallel groups of mice (n=8) were fed for another 10 weeks the same diet, but containing 0.3% (w/w of the dry food) of either egg sphingomyelin or phytosphingosine.
# In another parallel experiment, three groups of 8 mice each were fed the same high fat, high fructose diet for 18 weeks. One group received 0.3% egg sphingomyelin during the whole period, one group received 0.3% phytosphingosine during the whole period and the last group served as the control group (i.e. received no additional sphingolipid).
# as §2, §3, §4
# female ob/ob mice [3] = assay: Plasma parameters and body weight in 4 h fasted ob/ob mice fed chow or chow with 1% phytosphingosine; format: in vivo; conditions: for Body weight: mean ± SD of 10 mice; for Glucose (plasma) / Insulin (plasma): 4 h fasted, mean ± SD
# Experimental: 20 female ob/ob mice (C57B1/6 background) were obtained from Charles River, The Netherlands and were acclimatized for a period of 2 weeks within the TNO-facilities. After a 4 hour fast, blood was drawn by tail bleeding and the animals were randomized according to body weight and plasma glucose levels. […] The mice were put on a regular chow diet (control) or regular chow supplemented with 1% phytosphingosine (1% PS). After three weeks of treatment a blood sample was drawn after a 4 hours fast and body weight was determined. […] The 1% PS treated mice maintained their initial body weight. […] We observed no differences in insulin levels between the groups.
# [4] = high fructose diet during the last 10 weeks of the 18 week experiment
# [5] = high fructose diet during whole 18 weeks
# [6] = T = 0 (starting point, before treatment), 1% PS group
# [7] = T = 3 (3 weeks of chow with 1% PS)
molecule,measurement,setting,value
CCCCCCCCCCCCC/C=C/[C@@H](O)[C@H](CO)NC(C)=O [C2-ceramide],antilipolytic action of insulin,3T3-L1 adipocytes,decrease the antilipolytic action of insulin
same,lipolysis,3T3-L1 adipocytes,stimulate lipolysis
CCCCCCCCCCCCC/C=C/[C@@H](O)[C@H](CO)NC(C)=O [N-acetyl-sphingenine],binding to the PPAR-α receptor,PPAR-α,not able to bind
CCCCCCCCCCCCC/C=C/[C@@H](O)[C@H](CO)NC(=O)CCCCCCCCCCCCCCC [N-hexadecanoyl-sphingenine],binding to the PPAR-α receptor,PPAR-α,not able to bind
CCCCCCCCCCCCCC[C@@H](O)[C@@H](O)[C@@H](N)CO [phytosphingosine],glucose infusion rate (GIR),"female ob/ob mice [1]; vs. 46±8 in control ob/ob mice, P=0.001",75 ± 16 µL/kg/min
same,Glucose (plasma) during clamp,female ob/ob mice [1]; Basal period (no insulin added),7.3 ± 2.4 mmol/L
same,Glucose (plasma) during clamp,female ob/ob mice [1]; Hyperinsulinemic period,4.8 ± 1.3 mmol/L
same,"infusion rate of glucose, percentage of the infusion rate in strongly insulin resistant control mice",[2]; [4],114%
same,"infusion rate of glucose, percentage of the infusion rate in strongly insulin resistant control mice",[2]; [5],102%
same,Body weight,female ob/ob mice [3]; [6],42.2 ± 4.6 g
same,Glucose (plasma),female ob/ob mice [3]; [6],23.9 ± 5.1 mmol/L
same,Insulin (plasma),female ob/ob mice [3]; [6],25.8 ± 14.1 ng/mL
same,Insulin (plasma),female ob/ob mice [3]; [7],22.3 ± 6.8 ng/mL
same,Glucose (plasma),"female ob/ob mice [3]; T = 3 (3 weeks of chow with 1% PS), P < 0.01 vs. control",26.0 ± 7.0 mmol/L
same,Body weight,female ob/ob mice [3]; [7],41.7 ± 3.7 g
CCCCCCCCCCCCCCC[C@@H](O)[C@@H](N)COP(=O)(O)O [sphinganine-1-phosphate],binding to the PPAR-α receptor,PPAR-α,not able to bind
CCCCCCCCCCCCCCC[C@@H](O)[C@@H](N)CO [sphinganine],binding to the PPAR-α receptor,PPAR-α,strong binding ligands
CCCCCCCCCCCCC/C=C/[C@@H](O)[C@@H](N)CO [sphingenine],binding to the PPAR-α receptor,PPAR-α,strong binding ligands
ceramide,binding to the PPAR-α receptor,PPAR-α,not able to bind
phosphatidylcholine,binding to the PPAR-α receptor,PPAR-α,not able to bind
sphingomyelin,binding to the PPAR-α receptor,PPAR-α,not able to bind
same,"infusion rate of glucose, percentage of the infusion rate in strongly insulin resistant control mice",[2]; [4],102%
same,"infusion rate of glucose, percentage of the infusion rate in strongly insulin resistant control mice",[2]; [5],117%
